One data set concerns HepG2.2.15 cells. The data set is classed as cell-based, human. The note with it: Cmpd 2 μM: 0.01, 0.0032, 0.001, 0.0003, 0.0001, 0. The source says: The combination results were completed in duplicate with each assay consisting of 4 technical repeats.
The combination results were completed in duplicate with each assay consisting of 4 technical repeats. In this assay system, the combination results in additive inhibition of HBV DNA.

For a further data set, the system named is HBV rcDNA. The data set is described as follows: Dual agent combination in HepDE19 cells, rcDNA by Quantigene 2.0 bDNA assay (Examples 5-8). It is filed as cell-based, HBV; HepDE19 (HepG2 human hepatocarcinoma derived). The note with it: for EC50: HepDE19, combination studies with Cmpd 1, read-out: Avg. Inhibitor B EC50; for inhibition at 0.01 µM / inhibition at 0.02 µM / inhibition at 0.039 µM / inhibition at 0.156 µM / inhibition at 1.25 µM: HepDE19, Expt 2; for inhibition at 0.01 µM: TDF 0.010 μM alone; for inhibition at 0.02 µM: TDF 0.020 μM alone; for inhibition at 0.039 µM: TDF 0.039 μM alone; for inhibition at 0.156 µM: TDF 0.156 μM alone; for inhibition at 1.25 µM: TDF 1.250 μM alone. How it is done: In vitro dual agent combination studies were conducted using the method of Prichard and Shipman 1990 (Prichard M N, Shipman C, Jr. 1990. Antiviral Res 14:181-205). The HepDE19 cell culture system is a HepG2 (human hepatocarcinoma) derived cell line that supports HBV DNA replication and cccDNA formation under control the control of a CMV Tet-off promoter system (Guo et al. 2007. J Virol 81:12472-84). HepDE19 (50,000 cells/well) were plated in 96 well collagen-coated tissue-culture treated microtiter plates in DMEM/F12 medium supplemented with 10% fetal bovine serum+1% penicillin-streptomycin with tetracycline (1 μg/mL) and incubated in a humidified incubator at 37° C. and 5% CO2 overnight. Next day, the cells were switched to fresh medium without tetracycline and incubated for 4 hrs at 37° C. and 5% CO2. The cells were switched to fresh medium and treated with inhibitor A and inhibitor B, at concentration range spanning their respective EC50 values. […] The two inhibitors were tested both singly as well as in combinations in a checkerboard fashion such that each concentration of inhibitor A was combined with each concentration of inhibitor B to determine their combination effects on inhibition of rcDNA production. There were four replicates of each concentration combination in each experiment. The plates were incubated for 7 days in a humidified incubator at 37° C. and 5% CO2. The level of rcDNA present in the wells was measured using a Quantigene 2.0 bDNA assay kit (Affymetrix, Santa Clara, Calif.) with HBV specific custom probe set (genotype D ayw) and according to the manufacturer's instructions and read using a luminescence plate reader and the relative luminescence units (RLU) data generated from each well was calculated as % inhibition of the untreated control wells and analyzed using the MacSynergy II program to determine whether the combinations were synergistic, additive or antagonistic using the interpretive guidelines established by Prichard and Shipman (Prichard M N, Shipman C, Jr. 1990. […] Each experiment was repeated at least three times and the averages and standard deviations of individual determinations was calculated to derive the conclusion. Concurrently, in each experiment, the effect of inhibitor combinations on cell viability was assessed using replicate plates in triplicates that were used to determine the ATP content as a measure of cell viability using the Cell-Titer Glo reagent (Promega, Madison, Wis.) as per the manufacturer's instructions.

Setting [1] is: Hepatitis B virus, read-out: ADDITIVE INHIBITION
Where [2] appears, read: Hepatitis B virus, read-out: AVERAGE % INHIBITION

Where “and” joins values, the source holds several entries; their conditions need not be identical. Equal values may be shown once. Read-outs that look alike come from different tables or passages of the source.

As a reminder, the inhibition is the drop in the measured response relative to a control, in per cent. Usually EC50 stands for the concentration that produces a half-maximal response.

For the molecule `COCCCOc1cc2c(nc1OC)-c1cc(=O)c(C(=O)O)cn1[C@H](C(C)C)C2` [Compound 2], the “Average percent of cell viability vs control” value was 92.68% and 81.35% and 91.36% and 92.57% and 80.37% in the data set with HepG2.2.15 cells (ETV 0 μM); 104.89% and 104.08% and 103.79% and 101.80% and 99.27% in the data set with HepG2.2.15 cells (TAF 0 μM).

In the case of `C=C1[C@H](CO)[C@@H](O)C[C@@H]1n1cnc2c(=O)[nH]c(N)nc21` [ETV, entecavir], the “SYNERGY PLOT (99%) Bonferroni Adj. 55%” value in the data set on HBV rcDNA amounted to 0. The “ADDITIVE INHIBITION” value with HBV rcDNA (Expt 3, ETV 0.0003 μM alone) was found to be 28.28; in the data set on HBV rcDNA (Expt 3, ETV 0.001 μM alone), 38.31; in the data set on HBV rcDNA (Expt 3, ETV 0.003 μM alone) it was 62.92; in the data set on HBV rcDNA (Expt 3, ETV 0.008 μM alone), 88.06. Also, the inhibition at 0.0003 µM with HBV rcDNA (Hepatitis B virus, HepDE19, Expt 3, ETV 0.0003 μM alone) was 28.3%. The inhibition at 0.001 µM in the data set on HBV rcDNA (Hepatitis B virus, HepDE19, Expt 3, ETV 0.001 μM alone, read-out: AVERAGE % INHIBITION) was determined as 38.3%. In the data set on HBV rcDNA (Hepatitis B virus, HepDE19, Expt 3, ETV 0.003 μM alone, read-out: AVERAGE % INHIBITION), the inhibition at 0.003 µM came to 62.9%. Moreover, the inhibition at 0.008 µM in the data set on HBV rcDNA (Hepatitis B virus, HepDE19, Expt 3, ETV 0.008 μM alone) amounted to 88.1%. In addition, in the data set with HBV rcDNA (Hepatitis B virus), the EC50 is 0.001 µM. In addition, the “Average percent of cell viability vs control” value in the data set with HepG2.2.15 cells (ETV 3.17E−05 μM) is reported as 101.92%.

For `CC(C)OC(=O)OCOP(=O)(CO[C@H](C)Cn1cnc2c(N)ncnc21)OCOC(=O)OC(C)C.O=C(O)/C=C/C(=O)O` [TDF, tenofovir disoproxil fumarate, reference compound], in the data set on HBV rcDNA, the “SYNERGY PLOT (99%) Bonferroni Adj. 55%” value came to 0. Further, the “ADDITIVE INHIBITION” value is −0.25 in the data set with HBV rcDNA (Expt 1, TDF 0.009 μM alone); 45.88 with HBV rcDNA (Expt 1, TDF 0.083 μM alone); 98 in the data set with HBV rcDNA (Expt 1, TDF 0.750 μM alone); 32.54 in the data set with HBV rcDNA (Expt 3, TDF 0.009 μM alone); 76.04 with HBV rcDNA (Expt 3, TDF 0.083 μM alone); 96.97 in the data set with HBV rcDNA (Expt 3, TDF 0.750 μM alone). For the same molecule, the inhibition at 0.009 µM with HBV rcDNA (Hepatitis B virus, HepDE19, Expt 1, TDF 0.009 μM alone) is -0.25%; with HBV rcDNA (Hepatitis B virus, HepDE19, Expt 3, TDF 0.009 μM alone), 32.5%. Further, the inhibition at 0.083 µM was determined as 45.9% in the data set with HBV rcDNA (Hepatitis B virus, HepDE19, Expt 1, TDF 0.083 μM alone) and 76% in the data set with HBV rcDNA (Hepatitis B virus, HepDE19, Expt 3, TDF 0.083 μM alone). Further, the inhibition at 0.75 µM was found to be 98% with HBV rcDNA (Hepatitis B virus, HepDE19, Expt 1, TDF 0.750 μM alone) and 97% with HBV rcDNA (Hepatitis B virus, HepDE19, Expt 3, TDF 0.750 μM alone). Moreover, the inhibition at 0.01 µM with HBV rcDNA (setting [1]) and in the data set on HBV rcDNA (setting [2]) was 4.67% in each case. In addition, the inhibition at 0.02 µM in the data set on HBV rcDNA (setting [1]) and with HBV rcDNA (setting [2]) was -12.9% in each case. Besides, the inhibition at 0.039 µM in the data set on HBV rcDNA (setting [1]) and in the data set with HBV rcDNA (setting [2]) was 35.9% throughout. Further, the inhibition at 0.156 µM in the data set on HBV rcDNA (setting [1]) and with HBV rcDNA (setting [2]) was 77.1% each time. For the same molecule, the inhibition at 1.25 µM with HBV rcDNA (setting [1]) and in the data set with HBV rcDNA (setting [2]) was 98.4% each time. In addition, the EC50 in the data set on HBV rcDNA (Hepatitis B virus) stood at 0.064 µM.

(Values after patent US20220168430A1, “THERAPEUTIC METHODS FOR TREATING HEPATITIS B” (priority 2019, published 2022).)
